Experiment [1] concerns the target T1, human GHS-R 1a (Homo sapiens, UniProt Q92847). In words: GHS-R 1a receptor-ligand binding assay (membrane preparations from transfected LLC PK-1 cells). Particulars: displacement of 125I-His9-ghrelin; plasma membranes of LLC PK-1 cells transiently transfected with human GHS-R 1a; mean of at least two independent experiments in triplicates. Details: expressed in transfected cells. The method, then: II) GHS-R 1a Receptor-Ligand Binding Assay (Membrane Preparations from Transfected LLC PK-1 Cells)
The GHS-R 1a receptor binding/affinity studies were performed according to Guerlavais et al. (J. Med. Chem. 2003, 46: 1191-1203).
Isolated plasma membranes from LLC PK-1 cells, a renal epithelial cell line originally derived from porcine kidneys (ECACC No. 86121112) (10 μg of protein), that were transiently transfected with human GHS-R 1a cDNA (Guerlavais et al., J. Med. Chem. 2003, 46: 1191-1203), were incubated in homogenization buffer HB [50 mM Tris (pH 7.3), 5 mM MgCl2, 2.5 mM EDTA, and 30 μg/mL bacitracin (Sigma)] for 60 min at 25° C. (steady-state conditions) with […] ^125I-His^9-ghrelin (Amersham) in the presence or absence of competing compounds (compounds of the invention).
Nonspecific binding was defined using an excess (10^−6 M) of ghrelin. The binding reaction was stopped by addition of 4 mL of ice-cold HB followed by rapid filtration over Whatman GP/C filters presoaked with 0.5% polyethyleneimine to prevent excessive binding of radioligand to the filters. Filters were rinsed three times with 3 mL of icecold wash buffer [50 mM Tris (pH 7.3), 10 mM MgCl2, 2.5 mM EDTA, and 0.015% (w/v) X-100 Triton], and the radioactivity bound to membranes was measured in a gammacounter (Kontron Analytical Gamma Matic, Automatic gamma counting system).
The concentration of test compounds required to inhibit radiolabelled ghrelin binding by 50% (IC50) was determined by fitting competitive binding curves using non-linear regression (PRISM 3.0, Graph Pad San Diego, USA).
In the following table 2 results obtained for selected compounds of the invention are presented in comparison to an example of the prior art. IC50 values given are the mean of at least two independent experiments performed in triplicates.

Experiment [2] deals with T1, human GHS-R 1a. In words: In vitro intracellular calcium release assay using human GHS-R 1a transfected CHO cells. Details: expressed in transfected cells; host or cells: CHO-K1 Chinese hamster ovary cells (ATCC No. CCL-61), transient transfection by electroporation. It counts as cell-based. Particulars: for EC50: agonists, dose-response curve of intracellular calcium release; for activation at 1 µM: intracellular calcium release, compound at 10^-6 M, relative to basal level (0%) and 1 μM ghrelin (100%). The method, then:
The ability to properly activate the receptors is assessed for any compound of the invention by comparing the degree of activation (increase of intracellular calcium) of GHS-R 1a by the compound to be tested (at 10^−6 M concentration) to the degree of activation (increase of intracellular calcium) of GHS-R 1a by 10^−6 M ghrelin (100%) and to the basal level (0%). Such assessment can be readily performed by the skilled artisan due to his expert knowledge. The output is a percentage value for each compound to be tested. […]
III) In Vitro Intracellular Calcium Release Assay Using Human GHS-R 1a Transfected CHO Cells
The potential of the compounds of the invention to modulate GHS receptor activity was assessed by an in vitro intracellular Calcium release assay employing CHO cells that were transfected with human GHS-R 1a.
Release of intracellular calcium or inhibition thereof was measured using the fluorescent calcium indicator assay (FLIPR) and Fluo-4 AM.
CHO cells (CHO-KI Chinese Hamster Ovary cell line, ATCC No. CCL-61) were transiently transfected with human GHS-R 1a cDNA by electroporation and plated into 96-well black bottom plates (Corning 3603) (80,000 cells/well). Transient transfections were performed using the Easyject Optima Electroporator (Equibio), according to the manufacturer's instructions.
Transfected cells were grown in Dulbecco's modified Eagle's medium without phenol red, supplemented with 10% (v/v) non-essential amino acids, […] glutamine and streptomycin-penicillin (250 μg/ml-250 u/ml) (all purchased from Cambrex) at 37° C., 5% CO2 in a humidified atmosphere for 24 hours.
After incubation, transfected cells were washed with 150 μl Buffer A [Hanks' balanced salt solution (Sigma H-6648), 0.5% (v/v) BSA (Sigma A-7906), 20 mM CaCl2, 2.5 mM probenecid (pH 7.4, dissolved in 1 M NaOH) (Sigma P-8761)] and were then loaded with fluorescent calcium indicator Fluo-4 AM (10^−6 M) (Interchim UP72972) prepared in Buffer A, additionally containing 0.06% pluronic acid (Molecular probes P-6867) (a […] detergent which facilitates Fluo-4AM ester loading). (Loading: 100 μl per well of Buffer A containing 120 μl/ml Pluronic Acid and 1 μM Fluo-4AM was added to the cells).
After loading with Fluo-4 AM, transfected cells were incubated for 1 hour in the dark at 37° C.
Compounds to be tested were dissolved in Buffer A in triplicates at a concentration of 10^−6 M and distributed into another 96-well plate (Fisher Labosi A1210500).
Following incubation, excess Fluo-4AM was removed, 100 μl of Buffer A was added to each well at room temperature and immediately removed by aspiration. This was then repeated, before adding 50 μl Buffer A to each well.
Transfected cells were further incubated room temperature for 30 min to allow complete de-esterification of intracellular Fluo-4AM esters.
Subsequently, both plates, the black-bottom plate containing transfected cells and the microtiter plate containing the compounds to be tested, were then placed into a temperature-regulated (25° C.) FlexStation machine (benchtop scanning fluorometer Flex Station II, Molecular Devices, Sunnyvale, Calif., USA) for fluorescence output measurements.
Basal fluorescence output from the transfected cells was measured for 15 sec and then 50 μl of the compounds to be tested were automatically distributed into the wells containing the transfected cells. The fluorescence output was then recorded for a further 45 sec.
Excitation and emission wavelengths were 485 nm and 525 nm, respectively. Basal fluorescence intensity of Fluo-4AM-loaded transfected cells without compounds to be tested varied between 800-1200 arbitrary units, whereas maximal fluorescence output of dye-loaded transfected cells upon incubation with the compounds to be tested varied between 5000-7000 arbitrary units and was equivalent to that achieved by stimulation of dye-loaded transfected cells with 10^−6 M ghrelin. […]

T1 sequence (Q92847 whole entry): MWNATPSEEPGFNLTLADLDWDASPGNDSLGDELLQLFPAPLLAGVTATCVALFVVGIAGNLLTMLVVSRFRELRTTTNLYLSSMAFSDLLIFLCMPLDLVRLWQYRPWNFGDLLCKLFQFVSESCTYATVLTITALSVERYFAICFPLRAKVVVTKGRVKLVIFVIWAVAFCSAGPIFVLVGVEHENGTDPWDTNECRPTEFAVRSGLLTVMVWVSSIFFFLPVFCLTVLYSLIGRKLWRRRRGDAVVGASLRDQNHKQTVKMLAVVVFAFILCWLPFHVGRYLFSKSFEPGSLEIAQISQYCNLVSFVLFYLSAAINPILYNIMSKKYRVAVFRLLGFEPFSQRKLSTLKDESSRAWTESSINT

As usually defined, the IC50 is the point on the concentration scale where inhibition reaches its midpoint. Usually EC50 stands for the concentration needed to bring the measured effect to its halfway point. `O=C(N[C@H](Cc1c[nH]c2ccccc12)c1nnc(CCc2c[nH]c3ccccc23)n1Cc1cccc2ccccc12)C1CCOCC1` [Compound 20, N-((R)-1-(5-(2-(1H-indol-3-yl)ethyl)-4-((naphthalen-1-yl)methyl)-4H-1,2,4-triazol-3-yl)-2-(1H-indol-3-yl)ethyl)-tetrahydro-2H-pyran-4-carboxamide] gave an IC50 in experiment [1] of 180 nM. Further, in experiment [2], the EC50 was 0.6 nM and the activation at 1 µM amounted to 80%.
In the same order, the values of `O=C(N[C@H](Cc1c[nH]c2ccccc12)c1nnc(CCCc2c[nH]c3ccccc23)n1Cc1ccccc1)C1CCNCC1` [Compound 22, N-((R)-1-(5-(3-(1H-indol-3-yl)propyl)-4-benzyl-4H-1,2,4-triazol-3-yl)-2-(1H-indol-3-yl)ethyl)piperidine-4-carboxamide] are 40 nM, 1.6 nM and 150%.
The molecule `O=C(Cc1ccccn1)N[C@H](Cc1c[nH]c2ccccc12)c1nnc(CCc2c[nH]c3ccccc23)n1Cc1cccc2ccccc12` [Compound 30, N-((R)-1-(5-(2-(1H-indol-3-yl)ethyl)-4-((naphthalen-1-yl)methyl)-4H-1,2,4-triazol-3-yl)-2-(1H-indol-3-yl)ethyl)-2-(pyridin-2-yl)acetamide] registered an IC50 in experiment [1] of 125 nM. Besides, the activation at 1 µM in experiment [2] is 0%.
In experiment [1], `O=C(N[C@H](Cc1c[nH]c2ccccc12)c1nnc(CCc2c[nH]c3ccccc23)n1Cc1cccc2ccccc12)[C@@H]1CCCN1` [Compound 31, (2S)-N-((R)-1-(5-(2-(1H-indol-3-yl)ethyl)-4-((naphthalen-1-yl)methyl)-4H-1,2,4-triazol-3-yl)-2-(1H-indol-3-yl)ethyl)pyrrolidine-2-carboxamide] gave an IC50 of 505 nM. Also, in experiment [2], the EC50 worked out at 2.7 nM and the activation at 1 µM stood at 100%.
In experiment [1], `O=C(N[C@H](Cc1c[nH]c2ccccc12)c1nnc(CCc2c[nH]c3ccccc23)n1Cc1cccc2ccccc12)c1cnccn1` [Compound 32, N-((R)-1-(5-(2-(1H-indol-3-yl)ethyl)-4-((naphthalen-1-yl)methyl)-4H-1,2,4-triazol-3-yl)-2-(1H-indol-3-yl)ethyl)pyrazine-2-carboxamide] gave an IC50 of 122 nM. Further, in experiment [2], the activation at 1 µM turned out to be 0%.
In the case of `O=C(N[C@H](Cc1c[nH]c2ccccc12)c1nnc(Cc2ccccc2)n1Cc1ccc(Cl)c(Cl)c1)C1CCNCC1` [Compound 33, N-((R)-1-(4-(3,4-dichlorobenzyl)-5-benzyl-4H-1,2,4-triazol-3-yl)-2-(1H-indol-3-yl)ethyl)piperidine-4-carboxamide], the concentration for half-maximal inhibition (IC50) in experiment [1] was 5 nM. In experiment [2], the EC50 was 1.5 nM and the activation at 1 µM worked out at 120%.
In the case of `O=C(N[C@H](Cc1c[nH]c2ccccc12)c1nnc(CCCc2c[nH]c3ccccc23)n1Cc1cccc2ccccc12)C1CCNCC1` [Compound 39, N-((R)-1-(5-(3-(1H-indol-3-yl)propyl)-4-((naphthalen-1-yl)methyl)-4H-1,2,4-triazol-3-yl)-2-(1H-indol-3-yl)ethyl)piperidine-4-carboxamide], the 50% inhibitory concentration (IC50) in experiment [1] was determined as 21.1 nM. Besides, the EC50 in experiment [2] turned out to be 1 nM.
For `CC(C)(N)C(=O)N[C@H](Cc1c[nH]c2ccccc12)c1nnc(CCCc2c[nH]c3ccccc23)n1Cc1ccccc1` [Compound 42, N-((R)-1-(5-(3-(1H-indol-3-yl)propyl)-4-benzyl-4H-1,2,4-triazol-3-yl)-2-(1H-indol-3-yl)ethyl)-2-amino-2-methylpropanamide], the half-maximal inhibitory concentration (IC50) in experiment [1] amounted to 500 nM. Moreover, in experiment [2], the EC50 was 34 nM and the activation at 1 µM is 100%.
For the molecule `NC1(C(=O)N[C@H](Cc2c[nH]c3ccccc23)c2nnc(CCCc3c[nH]c4ccccc34)n2Cc2ccccc2)CCNCC1` [Compound 43, N-((R)-1-(5-(3-(1H-indol-3-yl)propyl)-4-benzyl-4H-1,2,4-triazol-3-yl)-2-(1H-indol-3-yl)ethyl)-4-aminopiperidine-4-carboxamide], the concentration for half-maximal inhibition (IC50) in experiment [1] turned out to be 35 nM. Further, the EC50 in experiment [2] amounted to 6.4 nM.
With `O=C(N[C@H](Cc1c[nH]c2ccccc12)c1nnc(CCCc2c[nH]c3ccccc23)n1Cc1cccc2ccccc12)C1CCCN1` (stereo partly drawn) [Compound 44, N-((R)-1-(5-(3-(1H-indol-3-yl)propyl)-4-((naphthalen-1-yl)methyl)-4H-1,2,4-triazol-3-yl)-2-(1H-indol-3-yl)ethyl)pyrrolidine-2-carboxamide], the IC50 in experiment [1] was 600 nM. Besides, in experiment [2], the EC50 stood at 12 nM and the activation at 1 µM amounted to 100%.
In the same order, the values of `COc1ccc(Cn2c(CCc3c[nH]c4ccccc34)nnc2[C@@H](Cc2c[nH]c3ccccc23)NC(=O)C2(N)CCNCC2)cc1` [Compound 47, N-((R)-1-(5-(2-(1H-indol-3-yl)ethyl)-4-(4-methoxybenzyl)-4H-1,2,4-triazol-3-yl)-2-(1H-indol-3-yl)ethyl)-4-aminopiperidine-4-carboxamide] are 150 nM, 38 nM and 100%.
Regarding `NC1(C(=O)N[C@H](Cc2c[nH]c3ccccc23)c2nnc(CCc3c[nH]c4ccccc34)n2Cc2cccc3ccccc23)CCNCC1` [Compound 48, N-((R)-1-(5-(2-(1H-indol-3-yl)ethyl)-4-((naphthalen-1-yl)methyl)-4H-1,2,4-triazol-3-yl)-2-(1H-indol-3-yl)ethyl)-4-aminopiperidine-4-carboxamide], in experiment [1], the IC50 is 12 nM. Also, in experiment [2], the EC50 stood at 3.9 nM and the activation at 1 µM is 100%.
In the same order, the values of `NC1(C(=O)N[C@H](Cc2c[nH]c3ccccc23)c2nnc(CCc3ccccc3)n2Cc2cccc3ccccc23)CCNCC1` [Compound 49, N-((R)-2-(1H-indol-3-yl)-1-(4-((naphthalen-1-yl)methyl)-5-phenethyl-4H-1,2,4-triazol-3-yl)ethyl)-4-aminopiperidine-4-carboxamide] are 44.5 nM, 10.1 nM and 100%.

The record behind these values is patent US20090239877A1, “NOVEL 1,2,4-TRIAZOLE DERIVATIVES AND PROCESS OF MANUFACTURING THEREOF” (AETERNA ZENTARIS GmbH, priority 2008, published 2009).
